The nature of assay [1]: Her2 expression suppression with viability readout – cell-based, AlphaScreen, CellTiter-Glo viability, dose response (AID 742). Particulars: human cells, Her2 expression AlphaScreen; CTG viability; at 9.62 µM (top of the series). (Alpha assays give light when donor and acceptor beads are brought close together.)
Assay [2] relates to human cells, Her2 expression AlphaScreen; CTG viability. The assay is described as above. To be noted: viability, CellTiter-Glo. In general terms: In ATP-based viability assays light output follows the ATP content of the culture.

The source made the active and inactive calls. No rule for the calls is given here. Where only a bound is given, the exact number is not on record here.

For orientation: EC50 means the concentration needed to bring the measured effect to its halfway point. Lower therefore signals higher potency in that assay.

With `COc1ccccc1-c1cc(C(F)(F)F)nc(S(=O)(=O)CCCC(=O)NC(C)C)n1`, the Her2 inhibition in assay [1] was 5% (inactive). The compound also returned an EC50 in assay [2] of over 9.62 µM.
The corresponding values for `Cc1ccc2[nH]cc(C(=O)CN3CCN(c4ccccn4)CC3)c2c1` are -23.7% (inactive) and over 9.62 µM.
The like results for `CC(=O)Nc1ccc(NS(=O)(=O)c2cc(C)sc2C)cc1` were, in that order, 0.09% (inactive) and over 9.62 µM.
The corresponding values for `C=CCc1cccc2cc(C(=O)NC)c(=O)oc12` are 3.58% (inactive) and over 9.62 µM.
`Oc1ccc2ccccc2c1C=NCc1cn2ccsc2n1`: the Her2 inhibition in assay [1] was -11.2% (inactive). In assay [2], this compound had an EC50 of over 9.62 µM.
The corresponding values for `CCOC(=O)N1CCN(CCC(=O)c2ccc(Cl)cc2)CC1` are 9.27% (inactive) and over 9.62 µM.
The corresponding values for `O=C(NCc1ccco1)C(Cc1ccccc1)N1C(=O)c2ccccc2C1=O` (centres undefined) are -6.2% (inactive) and over 9.62 µM.
The like results for `OC(CCN1CCCC1)(c1ccccc1)C1CCCCC1` (centres undefined) were, in that order, -24.9% (inactive) and over 9.62 µM.
`COc1cc2c(C#N)c(N3CCN(c4ccccc4OC)CC3)nc(N)c2c(N)n1`: the Her2 inhibition in assay [1] was -7.21% (inactive). For the same compound, the EC50 in assay [2] is over 9.62 µM.
The corresponding values for `Cc1cc(-c2nnc3n2N=C(c2ccc(-c4ccccc4)cc2)CS3)n[nH]1` are -21.4% (inactive) and over 9.62 µM.
The corresponding values for `FC(F)(F)c1ccc(N2CCOCC2)c(Nc2nc3ccccc3n3cnnc23)c1` are -15.5% (inactive) and over 9.62 µM.
With `CCN(CC)c1ccc2c(c1)oc(=O)c1c(Cl)cc(=O)oc12`, in assay [1], the Her2 inhibition was -20.7% (inactive). Moreover, in assay [2], the EC50 is over 9.62 µM.
For the compound `CS(=O)c1nc(-c2ccc(Br)cc2)cc(-c2ccccc2)c1C#N` (centres undefined), the Her2 inhibition in assay [1] is 34% (inactive). The compound further gave an EC50 in assay [2] of over 9.62 µM.
The like results for `N#CCSc1nc2cc(C(=O)N3CCC(C(N)=O)CC3)ccc2c2nc3ccccc3n12` were, in that order, 5.14% (inactive) and over 9.62 µM.
The like results for `CCOC(=O)c1c(NC(=O)CSc2n[nH]c(N)n2)sc(CC)c1C` were, in that order, -10.4% (inactive) and over 9.62 µM.
For the compound `N#CC(C#N)=c1ccc2c(c1)N1C3=C(CCCC3)CC3CCCCC31N=2` (centres undefined), the Her2 inhibition in assay [1] is 24.3% (inactive). Further, in assay [2], the EC50 was over 9.62 µM.
The like results for `CCNC(=O)c1nc[nH]c1C(=O)NCC` were, in that order, 2.98% (inactive) and over 9.62 µM.
The like results for `CCOC(=O)N1CCN(c2nnnn2-c2ccccc2)CC1` were, in that order, -3.51% (inactive) and over 9.62 µM.
The corresponding values for `CC1CC(C)(C)Nc2ccc(OC(=O)c3ccco3)cc21` (centres undefined) are -5.22% (inactive) and over 9.62 µM.
For `CCOC(=O)CCS(=O)(=O)c1nc(-c2ccccc2)cc(C(F)(F)F)n1`, the Her2 inhibition in assay [1] was 27.6% (inactive). Moreover, in assay [2], the EC50 is over 9.62 µM.
As to `C=CCSC1=N/C(=C\C=C\c2ccco2)C(=O)S1`, in assay [1], the Her2 inhibition was 28.4% (inactive). Besides, the concentration giving a half-maximal response (EC50) in assay [2] was over 9.62 µM.
The corresponding values for `O=C(c1n[nH]c(=O)c2ccccc12)N1CCN(c2ccccc2)CC1` are -18.2% (inactive) and over 9.62 µM.
The like results for `CCOC(=O)Cn1nnnc1C(CC)N(Cc1cccs1)Cc1cc2ccc(OC)cc2[nH]c1=O` (centres undefined) were, in that order, 22.9% (inactive) and over 9.62 µM.
The corresponding values for `CC1(C)CC(=O)C2=C(C1)OC(=O)C2(NC(=O)c1cccs1)C(F)(F)F` (centres undefined) are -18.5% (inactive) and over 9.62 µM.
`CCn1c2ccccc2c2cc(C3C(C#N)=C(N)Oc4n[nH]c(COC)c43)ccc21` (centres undefined): the Her2 inhibition in assay [1] was 29.6% (inactive). The compound also came in with an EC50 in assay [2] of over 9.62 µM.
The corresponding values for `CCCc1cc(C(=O)Cc2ccc(F)cc2)c(O)cc1O` are -30.2% (inactive) and over 9.62 µM.
The like results for `C=C(C)COc1ccc(-c2n[nH]c(C)c2-c2ccccc2)c(O)c1` were, in that order, -3.91% (inactive) and over 9.62 µM.
On to `O=C(CCn1[nH]c(=O)c2ccccc2c1=O)OC1CCCCC1`, for which the Her2 inhibition in assay [1] was -7.62% (inactive). The compound also showed an EC50 in assay [2] of over 9.62 µM.
The corresponding values for `CCN(CC)c1ccc(-c2nn3c(-c4n[nH]c5c4CCC5)nnc3s2)cc1` are -1.69% (inactive) and over 9.62 µM.
The like results for `CCCS(=O)(=O)N1CCC(C(=O)N2CCC(Cc3ccccc3)CC2)CC1` were, in that order, -12.4% (inactive) and over 9.62 µM.
The like results for `COc1ccc(-c2cc(N)n(S(=O)(=O)c3c(F)c(F)c(F)c(F)c3F)n2)cc1OC` were, in that order, 48.8% (inactive) and over 9.62 µM.
Take `Clc1ccc(CSC2=NCCCN2)cc1Cl`: the Her2 inhibition in assay [1] is -30.5% (inactive). Further, the EC50 in assay [2] is over 9.62 µM.

The values above are taken from PubChem BioAssay AID742 (SRMLSC, 2007).
